{"source": "patent US11180481B2", "about": "“Oxopiperazine helix mimetics as inhibitors of the p53-MDM2 interaction” (NEW YORK UNIVERSITY, priority 2014, dated 2021)", "target": "T1, N-terminal His6-tagged Mdm225-117 (Homo sapiens, UniProt Q00987)", "T1 construct": "25-117 fusion protein; made in house; host or cells: E. coli BL21 DE3 pLySS, pET-14B vector", "assay": "Fluorescence polarization competitive binding assay with fluorescein labeled p53 peptide (Flu-p53)", "conditions": "for fold decrease in binding affinity: relative to 18 (3-chloro-phenylalanine at R1)", "experimental": "The relative affinities of peptides for N-terminal His6-tagged Mdm225-117 were determined using fluorescence polarization based competitive binding assay with fluorescein labeled p53 peptide, Flu-p53. The polarization experiments were performed with a DTX 880 Multimode Detector (Beckman) at 25° C., with excitation and emission wavelengths at 485 nm and 535 nm, respectively. All samples were prepared in 96 well plates in 0.1% pluronic F-68 (Sigma).\nFor competition binding experiments, a solution of 250 nM Mdm2 and 15 nM Flu-p53 in buffer (10 mM PBS pH 7.4, 5 mM EDTA, 0.5 mM DTT, 0.1% pluronic F-68) was incubated at 25° C. in a 96 well plate. After 30 minutes, appropriate concentrations of the oxopiperazine (1 nM-100 μM) were added to the Mdm2-Flu-p53 mixture and the resulting mixtures were incubated at 25° C. for 1 hour before measuring the degree of dissociation of Flu-p53 by polarization. The EC50 was fit into equation (2) to calculate the Ki value of the oxopiperazine. Ki=KD1*FSB*((LT/(LST*FSB2−(KD1+LST+RT)*FSB+RT))−1(1−FSB)) (2)\nwhere: • KD=KD of fluorescent probe Flu-p53 • RT=Total concentration of Mdm2 protein • LST=total concentration of p53 fluorescent peptide • FSB=Fraction of bound […] (at EC50) • LT=total concentration of oxopiperazine (EC50)\nThe binding affinity (KD) values reported for each peptide are the averages of 3-5 individual experiments, and were determined by fitting the experimental data to a sigmoidal dose-response nonlinear regression model on GraphPad Prism 5.0 (Roehrl et al., Biochemistry 43:16056 (2004), which is hereby incorporated by reference in its entirety).\nA previously-described fluorescence polarization competition assay with a fluorescein-labeled p53 peptide was utilized to probe the binding affinity of the mimetics (Henchey et al., ChemBiochem 11:2104 (2010); Knight et al., Anal. Biochem. 300:230 (2002), each of which is hereby incorporated by reference in its entirety). […] To examine the effect of the R3 position on the binding properties, a series of compounds was designed in which this position was changed to hydrophobic, anionic, or cationic residues. These studies were performed in the context of the dimers (1-4) as well as oxopiperazine monomers linked to uncyclized dipeptides (see Table 4, supra). […] Importantly, comparisons of dimers 3 (FWLL) and 4 (FWFL) with the monomer-dipeptide sequences 11 and 12 support the hypothesis that cyclization of dipeptides in oxopiperazine rings provides a significant boost to the ability of these helix mimetics to target protein pockets Ramachandran Plots (Ramachandran & Sasisekharan, Adv. Protein Chem. 23:283 (1968), which is hereby incorporated by reference in its entirety) obtained from quantum mechanical calculations further illustrate the flexibility of the uncyclized derivative (FIGS. 9C-D) as compared to the cyclic dimer (FIGS. 9A-B).", "key": {"[1]": {"conditions": "Table 3, oxopiperazine dimers, competitive fluorescence polarization assay, read-out: Kd (μM), binding affinity for Mdm2"}, "[2]": {"conditions": "Table 5, restated by sequence, read-out: Experimental Kd"}, "[3]": {"conditions": "Table 6, computationally predicted dimers, competitive fluorescence polarization assay, read-out: Kd (μM), binding affinity for Mdm2"}}, "note": "Read-outs that look alike come from different tables or passages of the source."}
{"molecule": "CC(C)C[C@@H](C(=O)O)N1CCN(C(=O)[C@H](Cc2c[nH]c3ccccc23)N2CCN[C@@H](Cc3ccccc3)C2=O)[C@@H](C)C1=O", "note": "[Mimetic 1, FWAL-OH]", "values": [{"measurement": "Kd", "setting": "[1]", "result": "65.4 ± 0.28", "unit": "µM"}, {"measurement": "Kd", "setting": "oxopiperazine trimers, method not stated, read-out: Kd2", "result": "3.1 ± 2.4", "unit": "µM"}, {"measurement": "Kd", "setting": "read-out: dissociation constant, Kd", "result": 65, "unit": "µM"}]}
{"molecule": "CC(C)C[C@@H](C(=O)O)N1CCN(C(=O)[C@H](Cc2c[nH]c3ccccc23)N2CCN[C@@H](Cc3ccccc3)C2=O)[C@@H](CCCCN)C1=O", "note": "[Mimetic 2, FWKL-OH]", "values": [{"measurement": "binding to Mdm2, in words", "result": "appreciably lower affinity"}]}
{"molecule": "CC(C)C[C@@H](C(N)=O)N1CCN(C(=O)[C@H](Cc2c[nH]c3ccccc23)N2CCN[C@@H](Cc3ccccc3)C2=O)[C@@H](Cc2ccccc2)C1=O", "note": "[Mimetic 5, FWFL-NH2]", "values": [{"measurement": "Kd", "setting": "[1]", "result": "2.88 ± 0.12", "unit": "µM"}]}
{"molecule": "NCCCC[C@@H](C(N)=O)N1CCN(C(=O)[C@H](Cc2c[nH]c3ccccc23)N2CCN[C@@H](Cc3ccccc3)C2=O)[C@@H](Cc2ccccc2)C1=O", "note": "[Mimetic 6, FWFK-NH2]", "values": [{"measurement": "binding to Mdm2, in words", "result": "rather poor binder"}]}
{"molecule": "CC(C)C[C@@H](C(N)=O)N1CCN(C(=O)[C@H](Cc2c[nH]c3ccccc23)N2CCN[C@@H](CCCCN)C2=O)[C@@H](Cc2ccccc2)C1=O", "note": "[Mimetic 7, KWFL-NH2]", "values": [{"measurement": "binding to Mdm2, in words", "result": "poor binder"}]}
{"molecule": "CC(C)C[C@@H](C(N)=O)N1CCN(C(=O)[C@H](C)N2CCN[C@@H](Cc3ccccc3)C2=O)[C@@H](Cc2ccccc2)C1=O", "note": "[Mimetic 8, FAFL-NH2]", "values": [{"measurement": "Kd", "setting": "[1]", "result": "63.9 ± 6.8", "unit": "µM"}]}
{"molecule": "CCCC[C@@H](C(N)=O)N1CCN(C(=O)[C@H](Cc2c[nH]c3ccccc23)N2CCN[C@@H](Cc3ccccc3)C2=O)[C@@H](Cc2ccccc2)C1=O", "note": "[Mimetic 13, FWF(Nle)-NH2]", "values": [{"measurement": "Kd", "setting": "[2]", "result": 2.46, "unit": "µM"}]}
{"molecule": "CC(C)C[C@@H](C(N)=O)N1CCN(C(=O)[C@H](Cc2c[nH]c3ccccc23)N2CCN[C@@H](Cc3cccc4ccccc34)C2=O)[C@@H](Cc2ccccc2)C1=O", "note": "[Mimetic 15, (Nap)WFL-NH2]", "values": [{"measurement": "Kd", "setting": "[2]", "result": 0.85, "unit": "µM"}, {"measurement": "fold higher affinity than 5", "setting": "relative to mimetic 5", "result": "three-fold higher affinity"}]}
{"molecule": "CC(C)C[C@@H](C(N)=O)N1CCN(C(=O)[C@H](Cc2c[nH]c3ccccc23)N2CCN[C@@H](Cc3ccc(O)cc3)C2=O)[C@@H](Cc2ccccc2)C1=O", "note": "[Mimetic 16, YWFL-NH2]", "values": [{"measurement": "Kd", "setting": "[2]", "result": 0.4, "unit": "µM"}, {"measurement": "Kd", "setting": "read-out: ligand for Mdm2 (affinity)", "result": 0.4, "unit": "µM"}]}
{"molecule": "COc1ccc(C[C@@H]2NCCN([C@@H](Cc3c[nH]c4ccccc34)C(=O)N3CCN([C@@H](CC(C)C)C(N)=O)C(=O)[C@@H]3Cc3ccccc3)C2=O)cc1", "note": "[Mimetic 17, Y(O—Me)WFL-NH2]", "values": [{"measurement": "binding to Mdm2, in words", "result": "slightly better than 16"}, {"measurement": "Kd", "setting": "[3]", "result": "0.32 ± 0.01", "unit": "µM"}]}
{"molecule": "CC(C)C[C@@H](C(N)=O)N1CCN(C(=O)[C@H](Cc2c[nH]c3ccccc23)N2CCN[C@@H](Cc3cccc(Cl)c3)C2=O)[C@@H](Cc2ccccc2)C1=O", "note": "[Mimetic 18, F(3-Cl)WFL-NH2]", "values": [{"measurement": "binding to Mdm2, in words", "result": "slightly better than 16"}, {"measurement": "Kd", "setting": "[2]", "result": 0.33, "unit": "µM"}]}
{"molecule": "Cc1cccc(C[C@@H]2NCCN([C@@H](Cc3c[nH]c4ccccc34)C(=O)N3CCN([C@@H](CC(C)C)C(N)=O)C(=O)[C@@H]3Cc3ccccc3)C2=O)c1", "note": "[Mimetic 19, F(3-Me)WFL-NH2]", "values": [{"measurement": "Kd", "setting": "[2]", "result": 2.6, "unit": "µM"}, {"measurement": "fold decrease in binding affinity", "result": 8, "unit": "fold"}]}
{"molecule": "CC(C)C[C@@H](C(N)=O)N1CCN(C(=O)[C@H](Cc2c[nH]c3ccccc23)N2CCN[C@@H](Cc3ccc(Cl)cc3)C2=O)[C@@H](Cc2ccccc2)C1=O", "note": "[Mimetic 20, F(4-Cl)WFL-NH2]", "values": [{"measurement": "Kd", "setting": "[3]", "result": "1.29 ± 0.06", "unit": "µM"}, {"measurement": "fold decrease in binding affinity", "result": 4, "unit": "fold"}]}
